Measurements from ChEMBL document CHEMBL1201862, “PubChem BioAssay data set” (2004).
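How tested: cells in 96-well plates exposed to compound for 48 hours at five concentrations. Here, GI50 denotes the concentration required for 50% inhibition of growth.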 Calls of active or inactive are those of the source. Cut-off read from the data, not from the text of the source: active = GI50 up to about 1.1 µM and inactive = higher.

What was measured:
Test in all cases: growth of human tumour cells (NCI), 48 h
HOP-92 = tested on: HOP-92
786-0 = tested on: 786-0
SK-OV-3 = tested on: SK-OV-3
ACHN = tested on: ACHN
CCRF-CEM = tested on: CCRF-CEM
SN12C = tested on: SN12C
KM12 = tested on: KM12
SF-539 = tested on: SF-539
OVCAR-4 = tested on: OVCAR-4
OVCAR-8 = tested on: OVCAR-8
HCT-116 = tested on: HCT-116
U-251 = tested on: U-251
A549 = tested on: A549
HCC 2998 = tested on: HCC 2998
SW-620 = tested on: SW-620
OVCAR-3 = tested on: OVCAR-3
COLO 205 = tested on: COLO 205

Measured: GI50

CCCCCCCCCCCOC(=S)NC(C)C
inactive: HOP-92 14.1 µM | 786-0 19.1 µM | SK-OV-3 19.3 µM | ACHN 19.3 µM | CCRF-CEM 23.5 µM | SN12C 16.1 µM | KM12 19.7 µM | SF-539 18.3 µM | OVCAR-4 24.8 µM | OVCAR-8 16.6 µM | HCT-116 17.5 µM | U-251 15.8 µM | A549 21.4 µM | HCC 2998 17 µM | SW-620 16.3 µM

COC1OC(C)C(OC(=O)C(C)(C)C)C(OS(=O)(=O)c2ccc(C)cc2)C1OS(=O)(=O)c1ccc(C)cc1 (configuration not stated)
inactive: 786-0 > 100 µM | SK-OV-3 > 100 µM | OVCAR-3 > 100 µM | ACHN > 100 µM | CCRF-CEM > 100 µM | SN12C > 100 µM | KM12 > 100 µM | SF-539 > 100 µM | COLO 205 > 100 µM | OVCAR-4 > 100 µM | OVCAR-8 > 100 µM | HCT-116 > 100 µM | U-251 > 100 µM | A549 > 100 µM | HCC 2998 > 100 µM | SW-620 > 100 µM

NC(=O)N1N=C2c3ccccc3CC[C@@H]2C1c1ccccc1 (some centres not stated)
inactive: 786-0 > 100 µM | SK-OV-3 > 100 µM | OVCAR-3 > 100 µM | ACHN > 100 µM | CCRF-CEM > 100 µM | SN12C > 100 µM | KM12 > 100 µM | SF-539 > 100 µM | COLO 205 > 100 µM | OVCAR-8 > 100 µM | HCT-116 > 100 µM | U-251 > 100 µM | A549 > 100 µM | HCC 2998 > 100 µM | SW-620 > 100 µM

CN(C)C(=O)OC(Cn1cncn1)c1ccc(Cl)cc1Cl (configuration not stated)
inactive: HOP-92 > 100 µM | 786-0 > 100 µM | SK-OV-3 > 100 µM | OVCAR-3 > 100 µM | ACHN > 100 µM | SN12C > 100 µM | KM12 > 100 µM | SF-539 > 100 µM | COLO 205 > 100 µM | OVCAR-4 > 100 µM | OVCAR-8 > 100 µM | HCT-116 > 100 µM | U-251 > 100 µM | A549 > 100 µM | HCC 2998 > 100 µM | SW-620 > 100 µM

CCOC(=O)/N=C(\N)SCc1ccccc1
inactive: HOP-92 > 100 µM | 786-0 > 100 µM | SK-OV-3 > 100 µM | ACHN > 100 µM | CCRF-CEM 24.7 µM | SN12C > 100 µM | KM12 > 100 µM | SF-539 > 100 µM | OVCAR-4 > 100 µM | OVCAR-8 > 100 µM | HCT-116 > 100 µM | U-251 > 100 µM | A549 > 100 µM | HCC 2998 > 100 µM | SW-620 > 100 µM

COc1ccc(/C=C2\CN(C)Cc3c2nc(N)nc3-c2ccc(OC)cc2)cc1
inactive: 786-0 > 100 µM | SK-OV-3 > 100 µM | OVCAR-3 > 100 µM | ACHN > 100 µM | CCRF-CEM 41.5 µM | SN12C > 100 µM | KM12 61.2 µM | SF-539 > 100 µM | COLO 205 95.7 µM | OVCAR-8 49.3 µM | HCT-116 > 100 µM | U-251 67.5 µM | A549 48.4 µM | HCC 2998 16.6 µM | SW-620 57.4 µM

NC1N=Nc2ccccc21 (configuration not stated)
inactive: HOP-92 > 100 µM | 786-0 > 100 µM | SK-OV-3 > 100 µM | OVCAR-3 > 100 µM | ACHN > 100 µM | CCRF-CEM > 100 µM | SN12C > 100 µM | KM12 > 100 µM | SF-539 > 100 µM | COLO 205 > 100 µM | OVCAR-4 > 100 µM | OVCAR-8 > 100 µM | HCT-116 > 100 µM | U-251 > 100 µM | A549 > 100 µM | HCC 2998 > 100 µM | SW-620 > 100 µM

CCOC(=O)/C(Br)=C1/OC(=O)c2ccccc2-c2ccccc21.CCOC(=O)/C(Br)=C1\OC(=O)c2ccccc2-c2ccccc21
inactive: HOP-92 11.8 µM | 786-0 17.1 µM | SK-OV-3 36.2 µM | OVCAR-3 18.2 µM | ACHN 15.7 µM | CCRF-CEM 10.9 µM | SN12C 22.8 µM | KM12 14.8 µM | SF-539 21.5 µM | COLO 205 15.2 µM | OVCAR-8 23.1 µM | HCT-116 17.7 µM | U-251 23.2 µM | A549 26.3 µM | HCC 2998 21 µM | SW-620 16.1 µM

CCCC1(CC(=O)O)OCCc2c1[nH]c1ccccc21 (configuration not stated) [PRODOLIC ACID]
inactive: HOP-92 > 100 µM | 786-0 > 100 µM | SK-OV-3 > 100 µM | OVCAR-3 > 100 µM | ACHN > 100 µM | CCRF-CEM > 100 µM | SN12C > 100 µM | KM12 > 100 µM | SF-539 > 100 µM | COLO 205 > 100 µM | OVCAR-4 > 100 µM | OVCAR-8 > 100 µM | U-251 > 100 µM | A549 > 100 µM | HCC 2998 > 100 µM | SW-620 > 100 µM

COc1cccc(C2=NC(C(C)C)CO2)c1 (configuration not stated)
inactive: 786-0 > 100 µM | SK-OV-3 > 100 µM | OVCAR-3 > 100 µM | ACHN > 100 µM | CCRF-CEM > 100 µM | SN12C > 100 µM | KM12 > 100 µM | SF-539 > 100 µM | COLO 205 > 100 µM | OVCAR-4 > 100 µM | OVCAR-8 > 100 µM | A549 > 100 µM | HCC 2998 > 100 µM | SW-620 > 100 µM

COc1ccc2c(c1OC)C(=O)C2
inactive: 786-0 > 100 µM | SK-OV-3 > 100 µM | ACHN > 100 µM | CCRF-CEM > 100 µM | SN12C > 100 µM | KM12 > 100 µM | COLO 205 > 100 µM | OVCAR-4 > 100 µM | OVCAR-8 > 100 µM | HCT-116 > 100 µM | U-251 > 100 µM | A549 > 100 µM | SW-620 > 100 µM

COc1ccc(C2Oc3ccc(O)cc3[C@@H]2C)cc1OC (some centres not stated)
inactive: HOP-92 23 µM | 786-0 > 100 µM | SK-OV-3 > 100 µM | OVCAR-3 > 100 µM | ACHN > 100 µM | CCRF-CEM 17.5 µM | KM12 > 100 µM | SF-539 > 100 µM | COLO 205 > 100 µM | OVCAR-4 97.7 µM | OVCAR-8 > 100 µM | HCT-116 > 100 µM | U-251 > 100 µM | A549 > 100 µM | HCC 2998 > 100 µM | SW-620 > 100 µM

Cc1nn(-c2nc3ccccc3s2)c2c1C(=O)c1ccccc1-2
inactive: HOP-92 89.3 µM | 786-0 80.4 µM | SK-OV-3 > 100 µM | OVCAR-3 > 100 µM | ACHN > 100 µM | SN12C > 100 µM | KM12 > 100 µM | SF-539 > 100 µM | COLO 205 > 100 µM | OVCAR-4 26.9 µM | HCT-116 > 100 µM | U-251 60.7 µM | A549 > 100 µM | HCC 2998 > 100 µM | SW-620 > 100 µM

O=C(/C=N/c1ccccc1[S-])c1ccco1.O=C(/C=N/c1ccccc1[S-])c1ccco1.[Zn+2]
inactive: HOP-92 11.5 µM | 786-0 8.3 µM | SK-OV-3 27.9 µM | OVCAR-3 15.2 µM | ACHN 5.46 µM | CCRF-CEM 2.95 µM | SN12C 10 µM | KM12 12.8 µM | SF-539 13.3 µM | COLO 205 17.5 µM | OVCAR-8 6.37 µM | HCT-116 4.06 µM | U-251 4.23 µM | A549 3.98 µM | HCC 2998 10 µM | SW-620 10.9 µM

O=S(=O)(c1ccccc1)C1CN2OC1(S(=O)(=O)c1ccccc1)CC2c1ccc(Br)cc1 (configuration not stated)
inactive: HOP-92 66.2 µM | 786-0 38.1 µM | SK-OV-3 > 100 µM | OVCAR-3 84.7 µM | ACHN 45.4 µM | CCRF-CEM > 100 µM | SN12C > 100 µM | KM12 > 100 µM | SF-539 17.7 µM | OVCAR-4 15.4 µM | OVCAR-8 > 100 µM | HCT-116 > 100 µM | U-251 54.2 µM | A549 > 100 µM | HCC 2998 > 100 µM | SW-620 > 100 µM

COC1(C)CC2N(C(=O)c3ccccc3)N=C(c3ccccc3)CC2(C)O1 (configuration not stated)
inactive: HOP-92 > 100 µM | 786-0 > 100 µM | SK-OV-3 > 100 µM | OVCAR-3 > 100 µM | ACHN > 100 µM | CCRF-CEM 84.5 µM | SN12C > 100 µM | KM12 > 100 µM | SF-539 > 100 µM | OVCAR-4 > 100 µM | OVCAR-8 > 100 µM | HCT-116 > 100 µM | A549 > 100 µM | HCC 2998 96.4 µM | SW-620 > 100 µM

CC(=O)OC1COC(N2C(=O)C(=O)c3c(C)cc(Cl)nc32)C(OC(C)=O)C1OC(C)=O (configuration not stated)
inactive: HOP-92 > 100 µM | 786-0 > 100 µM | OVCAR-3 > 100 µM | ACHN > 100 µM | CCRF-CEM > 100 µM | SN12C > 100 µM | KM12 > 100 µM | SF-539 > 100 µM | COLO 205 > 100 µM | OVCAR-4 > 100 µM | OVCAR-8 > 100 µM | HCT-116 > 100 µM | U-251 > 100 µM | A549 > 100 µM | SW-620 > 100 µM

CN(CC(=O)O)S(=O)(=O)c1ccc(Cl)cc1
inactive: HOP-92 > 100 µM | 786-0 > 100 µM | SK-OV-3 > 100 µM | OVCAR-3 > 100 µM | ACHN > 100 µM | CCRF-CEM > 100 µM | SN12C > 100 µM | KM12 > 100 µM | SF-539 > 100 µM | COLO 205 > 100 µM | OVCAR-4 > 100 µM | OVCAR-8 > 100 µM | U-251 > 100 µM | A549 > 100 µM | HCC 2998 > 100 µM | SW-620 > 100 µM
